Assay results: patent US9891235B2, “Pathway specific assays for predicting irritable bowel syndrome diagnosis” (NESTEC S.A., priority 2013, dated 2018)

How the values were obtained:
[1] = tested on: anti-KYA-L antibody; assay: Competitive assay with biotinylated kynurenic acid, competitors; format: binding, rabbit; details: increasing amounts of competitor, FIG. 18
Experimental: Also, the cross-reactivity of the antiserum was tested using a competitive assay as diagramed in FIG. 12B. The biotinylated antigen (e.g., biotinylated Ser-D) was coated onto a streptavidin plate. Serotonin (5-HT) or pathway metabolites thereof (e.g., Tryp, 5-OH Tryp or 5-HIAA) in human serum were derivatized and added to the antiserum. The mixture was added to the plate and incubated for 1 hour at RT. The plate was washed several times with wash buffer. The goat anti-rabbit antibody-HRP conjugate solution was added and incubated for 1 hour at RT. The plate was washed several times in wash buffer. A color substrate was added for the colorimetric reaction and stop solution was added prior to reading the plate at 405 nm.
The cross-reactivity of the anti-KYA-L antibody was tested using the competitive assay described above. Briefly, kynurenic acid metabolites, such as L-kynurenine (Ky), 3-hydroxy-DL-kynurenine (H-Ky) and L-tryptophan (Tryp) were used to compete with biotinylated kynurenic acid for antibody binding.

[2] = Stability of 5-HT and 5-HIAA (TLC, loss of signal); format: physicochemical

sensitivity to oxygen / stability [2]	time in which degradation occurs ([2]; 4° C., from thawing, TLC (FIG. 3))	stability (FIG. 4) ([2]; during a period of 1 week)	Compound	effect of competitor on level of anti-KYA-L detected [1]
			Nc1c(O)cccc1C(=O)CC(N)C(=O)O (racemic) [H-Ky, 3-hydroxy-DL-kynurenine]	did not change
very unstable	about 7 hours	unstable	NCCc1c[nH]c2ccc(O)cc12 [Compound 5-HT, serotonin]	
			NCCCCCC(=O)Nc1ccc2nc(C(=O)O)cc(O)c2c1 [KYA-L, 6-(6-aminohexanamido)-4-hydroxyquinoline-2-carboxylic acid]	competed
			Nc1ccccc1C(=O)C[C@H](N)C(=O)O [Ky, L-kynurenine]	did not change
			N[C@@H](Cc1c[nH]c2ccccc12)C(=O)O [Trypt, L-tryptophan]	did not change
